Measured values from patent US12268727B2, “Bioactive polypeptides for improvements in plant protection, growth and productivity” (priority 2017, dated 2025).
Where “and” joins values, the source holds several entries; their conditions need not be identical. Identical values can stand only once.

Tests used:
Cercospora brassicicola = assay: White leaf spot on kale, disease score and plant weight; format: in vivo
Method: The infected kale plants had received no previous foliar treatments for fungal disease prevention. […] A single person scored all the plants within the trial area, and then evenly distributed the plants by disease score between the treatments in Table 64, with 6 replicated blocks of 6 plants per treatment (total=36 plants per treatment). […] Three weeks after foliar treatments, the plants were scored used the same disease severity rubric. The change in disease score was calculated for each plant, and the average change in disease score was determined per treatment. Plants were harvested four days after assessing disease severity, and yield was measured as plant weight (grams). Outlying values with weights that were either 50% below or 50% above the median weight for the trial were excluded from the dataset.

[1] = tested on: reactive oxygen species (ROS) production in tomato leaf tissue; assay: ROS activity assay in tomato leaf tissue; format: cell-based
Method: Tomato leaves were excised from 4-week-old plants using a cork borer to generate 4 mm disks. Each disc was cut in half using the edge of a razor blade, and then each disc half was floated on 150 μL of water in a 96-well plate to rest overnight. The next day, the water was removed from each well just prior to polypeptide treatment. The Flg polypeptides as described in Table 66 were added to water to bring them to a final concentration of 5 nM (Table 67) and 100 nM (Table 68) in solution with luminol and HRP before adding to each treatment well. To maintain activity, the polypeptides were stored in small aliquots to avoid multiple freezing and thawing. All dilutions to obtain working concentrations were done in ultrapure water. Polypeptide solutions were stored at −20° C. for short term usage or −80° C. for long term storage. RLU values and relative ROS activity (Tables 67, 68) is reported as the average of 4 measurements.

corn [2] = assay: Foliar application to corn in growth room, plant height (non-stress, heat and water deficit stress); details: for increase in plant height vs surfactant alone / Δ Height Normalized as a percentage of control height: 1 μM; for increase in plant height vs surfactant alone: V2-V3, heat and water deficit stress; for Δ Height (cm) / Δ Height Normalized as a percentage of control height: corn, heat and water deficit stress; for Δ Height (cm): 1 μM with 0.1% surfactant; for Δ Height Normalized as a percentage of control height: surfactant control = 100%; for plant height as % of control: foliar 1 μM
Cercospora = Cercospora leaf blight of soybean, symptom rating in US Midwest fields; format: in vivo, Cercospora kikuchii; details: for early symptom development (leaf area affected): 4 weeks, V3 foliar; for symptom ranking: 8 weeks; for Percent of Disease Area covering plant, 4 weeks Post Application / Disease Area, 8 weeks Post Application: foliar at V3; for Percent of Disease Area covering plant, 4 weeks Post Application: control 30%; for Disease Area, 8 weeks Post Application: control 50%
[3] = tested on: reactive oxygen species (ROS) production in corn tissue; assay: ROS activity assay in corn tissue (luminol/horseradish peroxidase, RLU); details: for Change (X) in RLU of Flg22 Polypeptide Compared to Negative Control / Average RLU of Flg22 Polypeptide Treatment: corn petiole; for Average RLU of Flg22 Polypeptide Treatment: background subtracted; for Relative ROS activity normalized to Bt.4Q7Flg22: normalized to Bt.4Q7Flg22 at 100 nM
[4] = tested on: reactive oxygen species (ROS) production in soybean leaf tissue; assay: ROS activity assay in soybean leaf tissue (luminol/horseradish peroxidase, RLU); format: cell-based; details: for Fold increase over negative control: vs mock (water)
corn [5] = assay: Seed treatment of corn, field yield trials; format: in vivo; details: for yield increase vs non-treated seed: 2 hybrids; for Average Yield Bu/Ac / Average Change in Bu/Ac compared to Untreated Control: seed treatment on base ST, BECK's 5828YX; for Average Yield Bu/Ac: 1 location, four replicated trials; for Average Total Yield Bu/Ac Hybrid 1 / Average Total Yield Bu/Ac Hybrid 1 and 2 / Average Total Yield Bu/Ac Hybrid 2: seed treatment
[6] = tested on: reactive oxygen species (ROS) production in Arabidopsis leaf tissue; assay: ROS activity assay in Arabidopsis leaf tissue; format: cell-based, Arabidopsis thaliana; details: 100 nM each polypeptide, negative control (water) 82896
Method: Elf18 and Elf26 polypeptides derived from the consensus Bacillus cereus Elongation Factor-TU (EF-Tu) protein were tested for ability to produce a ROS response in corn (hybrid 5828 YX), soy (variety Morsoy), and Arabidopsis thaliana. Polypeptides were synthesized by Genscript USA (Piscataway, N.J.) using standard solid-phase synthesis methods and provided as a lyophilized powder with greater than or equal to 70% purity. Dry powder was re-suspended to a concentration of 10 mM in ultrapure water, and then serially diluted in ultrapure water to the concentrations tested in the ROS assay in Table 98.
For the ROS assay, Arabidopsis leaves were excised from 4-week-old plants, and using a cork borer 4 mm disks were removed from the leaves. Each disc was cut in half using the edge of a razor blade, and then each disc half was floated on 150 μL of water abaxial side touching the water in a 96-well plate to rest overnight. The next day, the water was removed from each well just prior to polypeptide treatment. RLU values and relative ROS activity was reported as the average of 4 measurements.

[7] = Table 33, RLU relative to native Bt.4Q7Flg22 = 100
[8] = Table 35, single polypeptides and combinations, Bt.4Q7Flg22 = 100
[9] = soybean leaf tissue, Bt.4Q7Flg22 52.2 nM without surfactant
[10] = soybean leaves, Bt.4Q7Flg22 100 nM, No PROXEL Preservative Added
[11] = polypeptide 0.25 μM (cellobiose 1 mM where combined)
[12] = polypeptide 1.0 μM (cellobiose 1 mM where combined)
[13] = 0.25 μM in seed coating slurry (0.035 fl oz of 40 μM peptide solution/unit)
[14] = 1.0 μM in seed coating slurry (0.14 fl oz of 40 μM peptide solution/unit)

Bt.4Q7Flg22: Flg22 polypeptide (22 amino acids) from flagellin of Bacillus thuringiensis strain 4Q7 (DRLSSGKRINSASDDAAGLAIA; listed as Bacillus thuringiensis)
Average Change in Disease Score (Cercospora brassicicola; improvement on the 1-5 scale, surfactant only control 0.6 point improvement): 1.1 point | average plant weight (Cercospora brassicicola; infected kale, harvested about 3.5 weeks after foliar treatment): 15.1 g | Yield (Average plant weight in grams) (Cercospora brassicicola; infected kale, Bt.4Q7Flg22 100 μM 12.0 Fl. oz/Ac, Liquid Copper Fungicide label rate 54.45 Fl oz/Ac): 15.1 grams | Yield Relative to control (%) (Cercospora brassicicola; infected kale, surfactant only control 100%, Bt.4Q7Flg22 12.0 Fl. oz/Ac, copper fungicide 54.45 Fl oz/Ac): (103%) | average improvement in disease scoring over control (1-5 rubric) (Cercospora brassicicola; three weeks after foliar treatment): 0.5 points | ROS response ([1]; 5 nM): very low ROS response | ROS response ([1]; 100 nM): high response | Average RLU value (5 nM Flg polypeptide) ([1]; tomato leaf discs, 5 nM, average of 4 measurements): 33118 RLU | Average RLU value with 100 nM Flg polypeptide ([1]; tomato leaf discs, 100 nM (each, in the combination)): 2,118,932 (−) RLU | increase in plant height vs surfactant alone (corn [2]; Trial 1): ~13% | increase in plant height vs surfactant alone (corn [2]; Trial 3): > 33% | Δ Height (cm) (corn [2]; Trial 1): +11.68 cm | Δ Height Normalized as a percentage of control height (corn [2]; Trial 1): 112.9% | Δ Height (cm) (corn [2]; Trial 2): +9.28 cm | Δ Height Normalized as a percentage of control height (corn [2]; Trial 2): 99.5% | Δ Height (cm) (corn [2]; Trial 3): +11.03 cm | Δ Height Normalized as a percentage of control height (corn [2]; Trial 3): 133.2% | plant height as % of control (corn [2]; heat/water stressed conditions): ~108% | plant height as % of control (corn [2]; non-stressed conditions): 108% and 102% | early symptom development (leaf area affected) (Cercospora; 0.33 Fl. oz/Ac): 20% | early symptom development (leaf area affected) (Cercospora; 4.0 Fl. oz/Ac): approximately 5% | symptom ranking (Cercospora; 0.33 Fl. oz/Ac): comparable to the non-treated control plants | symptom ranking (Cercospora; 4.0 Fl. oz/Ac): considerably less apparent symptoms and damage | Percent of Disease Area covering plant, 4 weeks Post Application (Cercospora; 0.33 Fl. oz/Ac): 20% | Disease Area, 8 weeks Post Application (Cercospora; 0.33 Fl. oz/Ac): 50% | Percent of Disease Area covering plant, 4 weeks Post Application (Cercospora; 4.0 Fl. oz/Ac): 5% | Disease Area, 8 weeks Post Application (Cercospora; 4.0 Fl. oz/Ac): 35% | Avg. Activity (%) Corn (5828 YX) 5 nM polypeptide [3, 7]: 100% | Avg. Activity (%) Corn (5828 YX) 5 nM polypeptide [3, 8]: 100% | Change (X) in RLU of Flg22 Polypeptide Compared to Negative Control ([3]; 1.0 nM): 0.8X | Average RLU of Flg22 Polypeptide Treatment ([3]; 1.0 nM): 6851 RLU | Change (X) in RLU of Flg22 Polypeptide Compared to Negative Control ([3]; 5 nM): 1.1X | Average RLU of Flg22 Polypeptide Treatment ([3]; 5 nM): 9389 RLU | Change (X) in RLU of Flg22 Polypeptide Compared to Negative Control ([3]; 25 nM): 1.4X | Average RLU of Flg22 Polypeptide Treatment ([3]; 25 nM): 12157 RLU | Average RLU ([3]; corn stalk tissue, 10 nM): 6032 RLU | relative ROS activity ([3]; corn stalk tissue, 10 nM): 0.2 × | Relative ROS activity normalized to Bt.4Q7Flg22 ([3]; corn stalk tissue, 10 nM): (0.2X) | Average RLU ([3]; corn stalk tissue, 100 nM): 33037 RLU | Relative ROS activity normalized to Bt.4Q7Flg22 ([3]; corn stalk tissue, 100 nM): (1X*) | fold-increase in ROS production over mock-treated control ([4]; 52.2 nM Bt.4Q7Flg22, NIS90:10 0.25% or 0.5% v/v, Silwet-L77 0.025% or 0.1% v/v): 6.8 × | fold increase in RLU over mock treatment ([4]; 100 nM Bt.4Q7Flg22, Proxel compatibility test): 17.0 × | Avg. Activity (%) Soybean (297 R4) 100 nM polypeptide [4, 7]: 100% | Avg. Activity (%) Soybean (297 R4) 100 nM polypeptide [4, 8]: 100% | relative ROS activity ([4]; soy leaf tissue, 10 nM): 0.04 × | Polypeptide Concentration (nM) for 5 × 10^4 total RLU production ([4]; soybean leaf discs, from best-fit regression, Table 72 data set): 31.4 nM | Average RLU values [4, 9]: 350503 RLU | Fold increase over negative control [4, 9]: (6.8X) | Average RLU values [4, 10]: 81887 RLU | Fold increase over negative control [4, 10]: (17.0X) | yield gain vs base seed treatment only (corn [5]; 1 uM in slurry, 3 hybrids, 8 locations): 4.73 Bu/Ac | yield increase vs non-treated seed (corn [5]; high rate, 1.0 μM slurry (0.14 Fl. oz per unit), 12 locations): 5.3 Bu/Ac | yield increase vs non-treated seed (corn [5]; low rate, 0.25 μM slurry (0.035 Fl. oz per unit), 12 locations): 2.1 Bu/Ac | win rate (corn [5]; second study, 12 locations): 50% | yield advantage (corn [5]; second study, 12 locations): 2.8 Bu/Ac | Average Yield Bu/Ac (corn [5]; [11]): 47.06 Bu/Ac | Average Yield Bu/Ac (corn [5]; [12]): 29.60 Bu/Ac | Average Change in Bu/Ac compared to Untreated Control (corn [5]; [11]): +19.07 Bu/Ac | Average Change in Bu/Ac compared to Untreated Control (corn [5]; [12]): +1.60 Bu/Ac | Average Total Yield Bu/Ac Hybrid 1 (corn [5]; [13]): 218.36 Bu/Ac | Average Total Yield Bu/Ac Hybrid 1 and 2 (corn [5]; [13]): 200.62 Bu/Ac | Average Total Yield Bu/Ac Hybrid 2 (corn [5]; [13]): 182.88 Bu/Ac | Average Total Yield Bu/Ac Hybrid 1 (corn [5]; [14]): 213.44 Bu/Ac | Average Total Yield Bu/Ac Hybrid 1 and 2 (corn [5]; [14]): 202.62 Bu/Ac | Average Total Yield Bu/Ac Hybrid 2 (corn [5]; [14]): 187.48 Bu/Ac | Average RLU value [6]: 258073 RLU
